Like-named read-outs stand apart in the source and are kept apart here. Positions of bridges follow the written chain, without caps; N, C: chain ends. Residues, ends and D or L forms follow the SMILES beside them.

The target of data set [1] is T1, hNav1.7 (Homo sapiens, UniProt Q15858).
T1 construct: expressed in transfected cells; host or cells: HEK293T
The experiment in a line: cell-based. As to conditions: whole-cell patch clamp, mean ± S.E.M., SEM. For orientation: The patch-clamp technique gives a direct electrical read-out from membranes.

In data set [2] the target is T2, rKv4.2 E283K (Rattus norvegicus, UniProt Q63881, E283K).
T2 construct: expressed in transfected cells; host or cells: HEK293T
T2 sequence (Q63881 1-630 E283K): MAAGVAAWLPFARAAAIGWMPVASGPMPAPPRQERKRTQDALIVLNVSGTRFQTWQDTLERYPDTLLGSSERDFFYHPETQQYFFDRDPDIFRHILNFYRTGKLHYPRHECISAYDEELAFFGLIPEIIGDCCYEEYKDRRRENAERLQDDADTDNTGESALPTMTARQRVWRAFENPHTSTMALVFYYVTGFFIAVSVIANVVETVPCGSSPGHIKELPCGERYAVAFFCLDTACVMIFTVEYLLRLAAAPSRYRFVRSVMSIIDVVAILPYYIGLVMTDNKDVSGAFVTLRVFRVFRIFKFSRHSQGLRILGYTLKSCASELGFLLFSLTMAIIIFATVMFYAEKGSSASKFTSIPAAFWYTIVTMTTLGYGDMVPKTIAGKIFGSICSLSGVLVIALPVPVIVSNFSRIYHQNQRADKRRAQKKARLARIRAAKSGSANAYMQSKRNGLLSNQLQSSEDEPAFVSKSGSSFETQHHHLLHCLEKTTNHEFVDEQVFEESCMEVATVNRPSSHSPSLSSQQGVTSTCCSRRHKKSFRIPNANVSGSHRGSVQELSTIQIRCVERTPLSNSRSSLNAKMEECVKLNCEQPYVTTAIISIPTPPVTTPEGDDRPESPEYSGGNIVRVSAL
As to the kind of experiment: cell-based. Conditions: mean ± SEM.

In data set [3] the test system is other Kv channels (hKv1.1-1.5, rKv2.1, hKv3.1-3.4, mKv4.1, hKv7.2 and hERG). As to conditions: n = 3-4; for effect on the current traces of other Kv channels: 1 µM toxin.
The test system of data set [4] is ICR mice. The experiment in a line: Surface electrocardiogram (ECG) recording in ICR mice. Format: in vivo, mouse. As to the method:
Surface Electrocardiographic (ECG) Recording: ICR mice (weight 18–20 g, 6–8 weeks, both sex) were lightly anesthetized with 3% halothane for Surface electrocardiograms (ECG), which were recorded by placing dry electrodes carefully wrapped around each of the mouse's four limbs. The data of physiological effects of intravenous administration of 0.3 mg kg^−1 mGpTx1 (4 males and 4 females) or 2 mg kg^−1 mGpTx1‐SA (3 males and 2 females) for 5 min were collected by PowerLab 2/28 and LabChart 8 (AD Instruments, Bella Vista, Australia) and analyzed standard ECG parameters by along with its accompanying ECG analysis plug‐in. For each mouse, the data of 8 cardiac cycles before and after administration were averaged for analysis.

Data set [5] has as its system ICR mice. The experiment in a line: Rotarod test. The format is in vivo, mouse. As to conditions: 2 mg kg-1 i.p.; vs saline; n = 5-6, p > 0.9999. As to the method: In Vivo Safety Evaluation: Rotarod Test: ICR mice (weight 18–20 g, 6–8 weeks, both sex) were trained on a rotarod at a constant speed of 20 rpm for 8 min per day. […] On the 5th day, the remaining mice were randomly divided into two groups: Saline (3 males and 2 females) and 2 mg kg^−1 mGpTx1‐SA (3 males and 3 females). All groups were administered intraperitoneally and allowed 20 minutes for the drug to take effect before behavioral tests were conducted. The total motor time of the animals during 300 s was recorded for analysis.

In data set [6] the test system is ICR mice. As to the kind of experiment: Small intestinal propulsion test. The format is in vivo, mouse. As to conditions: 2 mg kg-1 i.p.; vs saline; n = 4, p = 0.3429. The method, then: Small Intestinal Propulsion Test: ICR mice (weight 18–20 g, 6–8 weeks, both sex) were subjected to a 24‐hour fasting period to ensure gastrointestinal emptying. Subsequently, the mice were randomly assigned to one of two groups: Saline (2 males and 2 females) and 2 mg kg^−1 mGpTx1‐SA (2 males and 2 females). All groups received intraperitoneal administration of their respective substances and were allowed 20 minutes for the drugs to take effect. Following drug administration, each mouse received a pre‐prepared nutritive semi‐solid paste (10 g of sodium carboxymethylcellulose, 16 g of milk powder, 8 g of sucrose, 8 g of starch, and 5 g of activated charcoal, stirred well in 250 mL of ddH2O) via gavage (0.5 mL per 20 g). After 20 min, the mice were euthanized, and their small intestines were carefully removed. The distance from the pylorus to the ileum was measured along the full length of the small intestine. Additionally, the distance from the pylorus to the front of the black semi‐solid paste was measured. Small intestinal propulsion rate (%) = length of carbon paste propulsion (cm) × 100% / total length of small intestine (cm).

In data set [7] the test system is native Kv channels of rat primary cardiomyocytes. As to conditions: 5 µM; n = 5.
Data set [8] concerns native Nav channels of rat primary cardiomyocytes. Conditions: 5 µM; n = 5.
Data set [9] relates to acutely isolated rat cardiomyocytes. As to conditions: 5 µM; for effect on action potential duration (APD): n = 5-6.
[10] abbreviates: HEK293T, hNav1.7 with β1 and β2, held at -90 mV, step to 0 mV, n = 3-7, read-out: IC50 for hNav1.7.

T1 sequence (O60939 30-215): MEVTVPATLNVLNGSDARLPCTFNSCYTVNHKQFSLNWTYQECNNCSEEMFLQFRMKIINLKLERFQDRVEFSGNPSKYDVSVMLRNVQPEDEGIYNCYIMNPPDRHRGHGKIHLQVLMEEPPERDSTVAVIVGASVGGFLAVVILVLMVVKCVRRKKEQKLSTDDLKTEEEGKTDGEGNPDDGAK
T1 sequence (Q15858 other isoform, or with tags, fused parts or gaps): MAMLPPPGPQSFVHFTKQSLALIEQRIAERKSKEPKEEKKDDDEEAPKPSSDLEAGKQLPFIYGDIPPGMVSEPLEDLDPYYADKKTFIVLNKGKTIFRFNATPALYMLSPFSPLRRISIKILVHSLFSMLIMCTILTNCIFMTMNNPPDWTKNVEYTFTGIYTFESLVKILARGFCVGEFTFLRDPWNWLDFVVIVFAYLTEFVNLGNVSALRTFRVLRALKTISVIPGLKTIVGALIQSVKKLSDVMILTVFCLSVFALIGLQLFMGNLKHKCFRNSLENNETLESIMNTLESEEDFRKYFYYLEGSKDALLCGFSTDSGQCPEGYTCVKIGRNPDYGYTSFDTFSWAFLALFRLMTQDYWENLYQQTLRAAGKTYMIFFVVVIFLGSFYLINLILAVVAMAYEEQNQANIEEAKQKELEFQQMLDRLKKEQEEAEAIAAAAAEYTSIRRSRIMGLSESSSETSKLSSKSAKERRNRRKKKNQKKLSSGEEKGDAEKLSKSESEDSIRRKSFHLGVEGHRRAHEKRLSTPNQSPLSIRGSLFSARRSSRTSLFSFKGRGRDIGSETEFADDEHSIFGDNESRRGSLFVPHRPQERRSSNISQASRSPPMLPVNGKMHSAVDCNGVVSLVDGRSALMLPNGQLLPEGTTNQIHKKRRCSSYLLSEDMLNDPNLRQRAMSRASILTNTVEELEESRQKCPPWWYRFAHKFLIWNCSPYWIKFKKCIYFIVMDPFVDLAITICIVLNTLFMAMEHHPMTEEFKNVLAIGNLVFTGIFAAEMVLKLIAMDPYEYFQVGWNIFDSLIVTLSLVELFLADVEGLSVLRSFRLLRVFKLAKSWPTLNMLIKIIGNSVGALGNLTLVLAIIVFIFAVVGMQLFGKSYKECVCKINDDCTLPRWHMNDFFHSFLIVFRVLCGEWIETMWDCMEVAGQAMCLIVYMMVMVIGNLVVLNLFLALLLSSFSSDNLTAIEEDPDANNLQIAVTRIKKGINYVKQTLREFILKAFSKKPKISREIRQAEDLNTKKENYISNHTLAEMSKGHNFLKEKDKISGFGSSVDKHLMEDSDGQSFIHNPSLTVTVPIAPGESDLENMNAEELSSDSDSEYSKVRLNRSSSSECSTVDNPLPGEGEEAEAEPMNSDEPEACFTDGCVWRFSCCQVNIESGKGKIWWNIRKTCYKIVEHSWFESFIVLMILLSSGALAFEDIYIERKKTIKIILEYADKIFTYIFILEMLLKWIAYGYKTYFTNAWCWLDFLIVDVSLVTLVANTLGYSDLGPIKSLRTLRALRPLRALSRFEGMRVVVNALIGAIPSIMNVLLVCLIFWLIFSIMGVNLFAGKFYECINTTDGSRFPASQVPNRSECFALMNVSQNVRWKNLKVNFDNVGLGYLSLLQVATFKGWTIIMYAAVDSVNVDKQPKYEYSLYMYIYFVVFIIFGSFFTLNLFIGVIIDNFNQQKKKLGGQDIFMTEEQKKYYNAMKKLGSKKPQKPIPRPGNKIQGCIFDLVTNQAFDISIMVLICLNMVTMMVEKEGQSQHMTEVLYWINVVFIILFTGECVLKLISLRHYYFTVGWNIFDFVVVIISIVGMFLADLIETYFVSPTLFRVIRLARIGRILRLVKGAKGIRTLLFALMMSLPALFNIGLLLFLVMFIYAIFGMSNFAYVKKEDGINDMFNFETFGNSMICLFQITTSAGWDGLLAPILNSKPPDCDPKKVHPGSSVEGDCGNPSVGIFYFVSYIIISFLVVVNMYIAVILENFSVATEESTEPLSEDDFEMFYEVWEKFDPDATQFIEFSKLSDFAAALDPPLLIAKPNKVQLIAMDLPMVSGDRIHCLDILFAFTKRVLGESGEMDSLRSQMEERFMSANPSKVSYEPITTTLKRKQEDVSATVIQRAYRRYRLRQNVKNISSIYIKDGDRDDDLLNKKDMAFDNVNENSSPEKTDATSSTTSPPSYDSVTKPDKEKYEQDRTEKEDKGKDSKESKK
T1 sequence (Q07699 19-218, further chain): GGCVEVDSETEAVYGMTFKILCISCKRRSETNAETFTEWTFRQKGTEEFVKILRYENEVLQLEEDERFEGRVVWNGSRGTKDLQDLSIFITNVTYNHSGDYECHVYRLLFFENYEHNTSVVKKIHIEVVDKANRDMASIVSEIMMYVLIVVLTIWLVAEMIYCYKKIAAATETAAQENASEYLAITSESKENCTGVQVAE

Turning to `CC[C@H](C)[C@H](NC(=O)[C@H](CCC(=O)O)NC(=O)[C@H](Cc1ccc(O)cc1)NC(=O)[C@H](CCCCN)NC(=O)[C@@H]1CSSC[C@@H]2NC(=O)[C@H](CCC(N)=O)NC(=O)[C@H](CC(=O)O)NC(=O)[C@H](CC(N)=O)NC(=O)[C@H](CO)NC(=O)[C@@H]3CCCN3C(=O)[C@H](CC(N)=O)NC(=O)[C@@H]3CSSC[C@H](NC(=O)[C@H](C(C)C)NC(=O)[C@H](CC(C)C)NC(=O)[C@H](CC(N)=O)NC(=O)[C@H](CO)NC(=O)[C@H](CO)NC(=O)[C@H](CCCCN)NC(=O)[C@H](CSSC[C@H](NC(=O)[C@@H](N)CCC(=O)O)C(=O)N[C@@H](CC(C)C)C(=O)NCC(=O)N[C@@H](Cc4ccccc4)C(=O)NCC(=O)N[C@@H](CCCCN)C(=O)NCC(=O)N3)NC2=O)C(=O)N[C@@H](CO)C(=O)N[C@@H](CCCNC(=N)N)C(=O)N[C@@H](CCCCN)C(=O)N[C@@H](Cc2c[nH]cn2)C(=O)N[C@@H](CCCNC(=N)N)C(=O)N[C@@H](Cc2c[nH]c3ccccc23)C(=O)N1)C(N)=O` [HNTX-IV], the IC50 in [1] (setting [10]) is 243 ± 42.5 nM; in data set [2] it was 5630 ± 1280 nM.
For `CC(C)C[C@@H]1NC(=O)[C@H](Cc2c[nH]c3ccccc23)NC(=O)[C@H](Cc2ccc(O)cc2)NC(=O)[C@H](CCCNC(=N)N)NC(=O)[C@@H](NC(=O)[C@@H](N)CCC(=O)O)CSSC[C@@H]2NC(=O)[C@@H]3CSSC[C@@H](C(=O)N[C@H](C(=O)N[C@@H](Cc4c[nH]c5ccccc45)C(=O)N[C@@H](CC(=O)O)C(=O)N[C@@H](Cc4c[nH]c5ccccc45)C(=O)N[C@H](C(=O)N[C@@H](Cc4ccccc4)C(N)=O)[C@@H](C)O)C(C)C)NC(=O)[C@H](Cc4c[nH]c5ccccc45)NC(=O)CNC(=O)[C@H](Cc4c[nH]cn4)NC(=O)[C@H](CCCCN)NC(=O)[C@@H]4CCCN4C(=O)[C@H](CO)NC(=O)[C@H](CSSC[C@H](NC(=O)[C@H]([C@@H](C)O)NC(=O)CNC1=O)C(=O)N[C@@H](CO)C(=O)N[C@@H](CCCCN)C(=O)N[C@@H]([C@@H](C)O)C(=O)NCC(=O)N[C@@H](CC(=O)O)C(=O)N3)NC(=O)[C@H](CO)NC(=O)[C@H](CC(C)C)NC(=O)[C@H](Cc1c[nH]cn1)NC(=O)[C@H](CO)NC2=O` [HNTX-VIIa] (H-ECRYWLGTCSKTGDCCSHLSCSPKHGWCVWDWTF-NH2; disulfide 2-16, 9-21, 15-28), the IC50 in data set [1] (native toxin isolated from venom, n = 5, read-out: IC50 against hNav1.7, native HNTX-VIIa) was 50.6 ± 4.6 nM; in data set [1] (setting [10]), 80.4 ± 19.6 nM; in data set [2], 62 ± 13 nM. Further, the “effect on the current traces of other Kv channels” value in data set [3] is recorded as “no obvious or only minimal effect”.
In data set [4] (2 mg kg-1, tail vein, control 0.13 ± 0.01 s, n = 5, p = 0.3229), `CC[C@H](C)[C@@H]1NC(=O)[C@@H]2CSSC[C@@H]3NC(=O)[C@H](C(C)C)NC(=O)[C@H](CC(C)C)NC(=O)[C@H](CC(N)=O)NC(=O)[C@@H]4CCCN4C(=O)[C@H](CCCNC(=N)N)NC(=O)[C@H](CSSC[C@H](NC(=O)[C@@H](N)CC(=O)O)C(=O)N[C@@H](CC(C)C)C(=O)NCC(=O)N[C@@H](C)C(=O)N[C@@H](Cc4ccccc4)C(=O)N[C@@H](CCCNC(=N)N)C(=O)N[C@@H](CCCCN)C(=O)N2)NC(=O)[C@H](CSSC[C@@H](C(=O)N[C@@H](CCCCN)C(=O)N[C@@H](Cc2ccc(O)cc2)C(=O)N[C@H](C(=O)N[C@@H](Cc2ccccc2)C(N)=O)C(C)C)NC(=O)[C@H](Cc2c[nH]c4ccccc24)NC(=O)[C@H](CCCNC(=N)N)NC(=O)[C@H](Cc2c[nH]cn2)NC(=O)[C@H](C)NC(=O)[C@H](CO)NC(=O)[C@H](CO)NC3=O)NC(=O)[C@H](CCCCN)NC(=O)[C@H](CC(=O)O)NC(=O)[C@H](CC(N)=O)NC(=O)[C@H](CC(=O)O)NC(=O)[C@@H]2CCCN2C1=O` [mGpTx1-SA] (H-DCLGAFRKCIPDNDKCCRPNLVCSSAHRWCKYVF-NH2; disulfide 2-17, 9-23, 16-30) showed an RR interval of 0.13 ± 0.01 s. In addition, in data set [4] (2 mg kg-1, tail vein, control 478.2 ± 24.3, n = 5, p = 0.8856), the heart rate was determined as 475.3 ± 24.7. Also, the “effect on the ECGs” value in data set [4] (2 mg kg-1, tail vein, n = 5) is “no effect”. In data set [1] (setting [10]), the IC50 is 40.3 ± 3.2 nM. The “balance time of mice on the rotarod test” value in data set [5] is reported as “did not affect”. Besides, in data set [6], the small intestinal propulsion result was “no effect”. Besides, in data set [7], the “inhibition of Kv currents in the primary cardiomyocytes” value was “did not inhibit”. Besides, the “inhibition of Nav currents in the primary cardiomyocytes” value in data set [8] was “did not inhibit”. In data set [9], the “effect on AP amplitude” value is given as “no significant changes”, the “effect on resting membrane potential (RMP)” value is “no significant changes” and the “effect on action potential duration (APD)” value was “no effect”. For the same compound, the “inhibition on other Kv channel subtypes” value in data set [3] (10 µM) is “low inhibition”.
Consider `CC[C@H](C)[C@@H]1NC(=O)[C@@H]2CSSC[C@@H]3NC(=O)[C@H](C(C)C)NC(=O)[C@H](CC(C)C)NC(=O)[C@H](CC(N)=O)NC(=O)[C@@H]4CCCN4C(=O)[C@H](CCCNC(=N)N)NC(=O)[C@H](CSSC[C@H](NC(=O)[C@@H](N)CC(=O)O)C(=O)N[C@@H](CC(C)C)C(=O)NCC(=O)N[C@@H](C)C(=O)N[C@@H](Cc4ccccc4)C(=O)N[C@@H](CCCNC(=N)N)C(=O)N[C@@H](CCCCN)C(=O)N2)NC(=O)[C@H](CSSC[C@@H](C(=O)N[C@@H](CCCCN)C(=O)N[C@@H](Cc2ccc(O)cc2)C(=O)N[C@H](C(=O)N[C@@H](Cc2ccccc2)C(N)=O)C(C)C)NC(=O)[C@H](Cc2c[nH]c4ccccc24)NC(=O)[C@H](CCCNC(=N)N)NC(=O)[C@H](Cc2cnc[nH]2)NC(=O)[C@H](CC(C)C)NC(=O)[C@H](CCCNC(=N)N)NC(=O)[C@H](CO)NC3=O)NC(=O)[C@H](CCCCN)NC(=O)[C@H](CC(=O)O)NC(=O)[C@H](CC(N)=O)NC(=O)[C@H](CC(=O)O)NC(=O)[C@@H]2CCCN2C1=O` [mGpTx1] (H-DCLGAFRKCIPDNDKCCRPNLVCSRLHRWCKYVF-NH2; disulfide 2-17, 9-23, 16-30), for which the QTc interval in data set [4] (0.3 mg kg-1, tail vein, control 0.07 ± 0.01 s, n = 8, p < 0.001) turned out to be 0.12 ± 0.01 s. Further, in data set [4] (0.3 mg kg-1, tail vein, control 0.12 ± 0.01 s, n = 8, p = 0.0088), the RR interval was 0.14 ± 0.01 s. The compound also gave a T-wave amplitude in data set [4] (0.3 mg kg-1, tail vein, control 0.20 ± 0.03 mV, n = 8, p = 0.0138) of 0.09 ± 0.02 mV. Moreover, in data set [4] (0.3 mg kg-1, tail vein, control 508.4 ± 24.5, n = 8, p = 0.0045), the heart rate worked out at 451.6 ± 27.1. In addition, in data set [4] (0.3 mg kg-1, tail vein, n = 8), the “effect on the ECGs” value was “notably altered the shape of the ECGs”. In data set [1] (setting [10]), the IC50 is 8 ± 1.2 nM. Moreover, in data set [2], the IC50 worked out at 646 ± 135 nM. Besides, in data set [9], the “effect on AP amplitude” value is recorded as “no significant changes”, the “effect on resting membrane potential (RMP)” value is “no significant changes” and the “effect on action potential duration (APD)” value is on record as “significantly prolonged”. The “APD at 90% repolarization (APD 90)” value in [9] (before treatment 51.7 ± 14.6 ms, n = 5, p = 0.0289) was 137.1 ± 36.3 ms. Moreover, the “effect on the current traces of other Kv channels” value in data set [3] is given as “no obvious or only minimal effect”.

Broadly, the IC50 is the midpoint of a concentration-inhibition curve.

These data come from publication PMC11558128 (Advanced Science, 2024).
